Activity calls are given as the source filed them.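 The calls were made as follows: active = EC50 at or below 10 µM; inactive = EC50 above 10 µM.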
Target: Nuclear hormone receptor DAF-12 (Heterodera glycines)
Test: H. glycines DAF-12 receptor agonist potency, dose response, cell-based, luminescence, HEK293 (AID 743059);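 also: agonist potency for compounds that raise hgDAF-12 reporter luminescence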
Conditions: HEK293 hgDAF-12 reporter, luciferase luminescence

For `O=C(/C=C/c1ccccc1)N1CCC(c2ccccc2)C1` (stereo unspecified), the EC50 was > 67.5 µM (inactive).
